Test results taken from PubChem BioAssay AID2060604 (Molecular Pharmacology Branch, DTP, NCI, 2025).
“And” between values parts separate entries of the source, which are not always exact repeats. Equal values may be shown once.

Tested on: 379773-124-R-J2-PDC complex spheroids, viability % test/control
Assay: Anticancer human tumor 379773-124-R-J2-PDC patient-derived endometrial carcinoma cell line growth inhibition [CLK]
Conditions: for viability, T/C: stronger effect = lower value
Procedure, shortened: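 Patient-derived tumor cells grown as complex spheroids with HUVEC endothelial cells and mesenchymal stem cells, treated with drug combinations. Concentrations descend in half-log steps from near clinical Cmax, or from 10 microM if Cmax unknown.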

[1] = curve of first compound, second compound 0.0316 µM
[2] = curve of first compound, second compound 0.1 µM
[3] = curve of first compound, second compound 0.316 µM
[4] = curve of first compound, second compound 1 µM
[5] = curve of first compound, second compound 3.16 µM
[6] = curve of first compound, second compound 10 µM
[7] = second compound 0.0316 µM, first compound 0.0316 µM
[8] = second compound 0.0316 µM, first compound 0.1 µM
[9] = second compound 0.1 µM, first compound 0.0316 µM
[10] = second compound 0.1 µM, first compound 0.1 µM
[11] = second compound 0.316 µM, first compound 0.0316 µM
[12] = second compound 0.316 µM, first compound 0.1 µM
[13] = second compound 1 µM, first compound 0.0316 µM
[14] = second compound 1 µM, first compound 0.1 µM
[15] = second compound 3.16 µM, first compound 0.0316 µM
[16] = second compound 3.16 µM, first compound 0.1 µM
[17] = second compound 10 µM, first compound 0.0316 µM
[18] = second compound 10 µM, first compound 0.1 µM
[19] = second compound 0.0316 µM, first compound 0.316 µM
[20] = second compound 0.0316 µM, first compound 1 µM
[21] = second compound 0.0316 µM, first compound 3.16 µM
[22] = second compound 0.0316 µM, first compound 10 µM
[23] = second compound 0.1 µM, first compound 0.316 µM
[24] = second compound 0.1 µM, first compound 1 µM
[25] = second compound 0.1 µM, first compound 3.16 µM
[26] = second compound 0.1 µM, first compound 10 µM
[27] = second compound 0.316 µM, first compound 0.316 µM
[28] = second compound 0.316 µM, first compound 1 µM
[29] = second compound 0.316 µM, first compound 3.16 µM
[30] = second compound 0.316 µM, first compound 10 µM
[31] = second compound 1 µM, first compound 0.316 µM
[32] = second compound 1 µM, first compound 1 µM
[33] = second compound 1 µM, first compound 3.16 µM
[34] = second compound 1 µM, first compound 10 µM
[35] = second compound 3.16 µM, first compound 0.316 µM
[36] = second compound 3.16 µM, first compound 1 µM
[37] = second compound 3.16 µM, first compound 3.16 µM
[38] = second compound 3.16 µM, first compound 10 µM
[39] = second compound 10 µM, first compound 0.316 µM
[40] = second compound 10 µM, first compound 1 µM
[41] = second compound 10 µM, first compound 3.16 µM
[42] = second compound 10 µM, first compound 10 µM
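Note: compound exposure lasted seven days before the viability readout.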
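Throughout, for viability, T/C: 100% = DMSO vehicle control wells.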

In the case of `Cn1ncnc1[C@H]1c2n[nH]c(=O)c3cc(F)cc(c23)N[C@@H]1c1ccc(F)cc1` + CN1CCN(c2cc(C(=O)Nc3cc4cc(-c5cnn(C)c5)ccc4cn3)ccn2)CC1, the IC50 [1] is reported as 0.0426 µM, the IC50 [2] is reported as 0.0222 µM and the IC50 [3] is reported as less than 0.000316 µM. For the same compound, the IC50 [4] was less than 0.000316 µM, the IC50 [5] was less than 0.000316 µM and the IC50 [6] was less than 0.000316 µM. It also gave a viability, T/C (second compound 0.0316 µM, first compound 0.000316 µM) of 87.8%, a viability, T/C (second compound 0.0316 µM, first compound 0.001 µM) of 96.2% and a viability, T/C (second compound 0.0316 µM, first compound 0.00316 µM) of 80.3%. It also gave a viability, T/C (second compound 0.0316 µM, first compound 0.01 µM) of 92.6%, a viability, T/C [7] of 55.6% and a viability, T/C [8] of 34%. The viability, T/C (second compound 0.1 µM, first compound 0.000316 µM) was 87%, the viability, T/C (second compound 0.1 µM, first compound 0.001 µM) was 82.6% and the viability, T/C (second compound 0.1 µM, first compound 0.00316 µM) was 79.1%. It also gave a viability, T/C (second compound 0.1 µM, first compound 0.01 µM) of 64.1%, a viability, T/C [9] of 43.6% and a viability, T/C [10] of 27%. For the same compound, the viability, T/C (second compound 0.316 µM, first compound 0.000316 µM) was 24.1%, the viability, T/C (second compound 0.316 µM, first compound 0.001 µM) was 29.2% and the viability, T/C (second compound 0.316 µM, first compound 0.00316 µM) was 17.9%. It also gave a viability, T/C (second compound 0.316 µM, first compound 0.01 µM) of 21.4%, a viability, T/C [11] of 15.2% and a viability, T/C [12] of 12.3%. For the same compound, the viability, T/C (second compound 1 µM, first compound 0.000316 µM) was 0.11%, the viability, T/C (second compound 1 µM, first compound 0.001 µM) was 0.8% and the viability, T/C (second compound 1 µM, first compound 0.00316 µM) was 0.33%. For the same compound, the viability, T/C (second compound 1 µM, first compound 0.01 µM) was 0.19%, the viability, T/C [13] was 0.06% and the viability, T/C [14] was 0.07%. It also gave a viability, T/C (second compound 3.16 µM, first compound 0.000316 µM) of 1.37%, a viability, T/C (second compound 3.16 µM, first compound 0.001 µM) of 0.24% and a viability, T/C (second compound 3.16 µM, first compound 0.00316 µM) of 0.23%. The viability, T/C (second compound 3.16 µM, first compound 0.01 µM) was 0.07%, the viability, T/C [15] was 1.63% and the viability, T/C [16] was 0.08%. For the same compound, the viability, T/C (second compound 10 µM, first compound 0.000316 µM) was 1.25%, the viability, T/C (second compound 10 µM, first compound 0.001 µM) was 0.1% and the viability, T/C (second compound 10 µM, first compound 0.00316 µM) was 0.49%. For the same compound, the viability, T/C (second compound 10 µM, first compound 0.01 µM) was 0.52%, the viability, T/C [17] was 0.29% and the viability, T/C [18] was 0.13%.
Compound `Nc1ccccc1NC(=O)c1ccc(CNC(=O)OCc2cccnc2)cc1` + CN1CCN(c2cc(C(=O)Nc3cc4cc(-c5cnn(C)c5)ccc4cn3)ccn2)CC1 has an IC50 [1] of 3.11 µM, an IC50 [2] of 1.97 µM and an IC50 [3] of less than 0.0316 µM. For the same compound, the IC50 [4] was less than 0.0316 µM, the IC50 [5] was less than 0.0316 µM and the IC50 [6] was less than 0.0316 µM. For the same compound, the viability, T/C [7] was 89.8%, the viability, T/C [8] was 92.6% and the viability, T/C [19] was 113%. It also gave a viability, T/C [20] of 104%, a viability, T/C [21] of 49.1% and a viability, T/C [22] of 10.4%. It also gave a viability, T/C [9] of 82.2%, a viability, T/C [10] of 81% and a viability, T/C [23] of 111%. It also gave a viability, T/C [24] of 66.2%, a viability, T/C [25] of 36% and a viability, T/C [26] of 5.29%. For the same compound, the viability, T/C [11] was 21.2%, the viability, T/C [12] was 27.6% and the viability, T/C [27] was 17.5%. For the same compound, the viability, T/C [28] was 13.2%, the viability, T/C [29] was 4.61% and the viability, T/C [30] was 0.06%. The viability, T/C [13] was 0.13%, the viability, T/C [14] was 0.25% and the viability, T/C [31] was 0.3%. The viability, T/C [32] was 1.14%, the viability, T/C [33] was 0.04% and the viability, T/C [34] was 0.92%. For the same compound, the viability, T/C [15] was 0.08%, the viability, T/C [16] was 0.1% and the viability, T/C [35] was 0.08%. For the same compound, the viability, T/C [36] was 1.25%, the viability, T/C [37] was 0.1% and the viability, T/C [38] was 0.09%. For the same compound, the viability, T/C [17] was 0.15%, the viability, T/C [18] was 0.81% and the viability, T/C [39] was 0.62%. The viability, T/C [40] was 1.15%, the viability, T/C [41] was 1.4% and the viability, T/C [42] was 0.15%.
In the case of `COc1c(OCCCN2CCOCC2)ccc2c3n(c(=NC(=O)c4cnc(N)nc4)nc12)CCN3`, the viability, T/C (compound 0.00316 µM) is reported as 85.3% and 98.5%, the viability, T/C (compound 0.01 µM) is reported as 91.9% and 72.6% and the viability, T/C (compound 0.0316 µM) is reported as 73.5% and 69.3%. The viability, T/C (compound 0.1 µM) was 43.4% and 40.3%, the viability, T/C (compound 0.316 µM) was 15.3% and 12.2% and the viability, T/C (compound 1 µM) was 4.52% and 3.3%. For the same compound, the IC50 (curve of compound) was 0.0787 µM and 0.0588 µM.
`Nc1ccn(C2OC(CO)C(O)C2(F)F)c(=O)n1` (stereo not given) was tested, and the viability, T/C (compound 0.0316 µM) was 6.4% and 4.58%, the viability, T/C (compound 0.1 µM) was 5.3% and 4.24% and the viability, T/C (compound 0.316 µM) was 6.69% and 3.96%. The viability, T/C (compound 1 µM) was 5.77% and 4.69%, the viability, T/C (compound 3.16 µM) was 4.84% and 3.97% and the viability, T/C (compound 10 µM) was 3.93% and 3.21%. The IC50 (curve of compound) was less than 0.0316 µM.
In the case of `CC1(C)CCC(CN2CCN(c3ccc(C(=O)NS(=O)(=O)c4ccc(NCC5CCOCC5)c([N+](=O)[O-])c4)c(Oc4cnc5[nH]ccc5c4)c3)CC2)=C(c2ccc(Cl)cc2)C1` + CNC(=O)c1ccc(Nc2nc(OC3CCCC3)c3c(-c4ccc5nc(C)oc5c4)c[nH]c3n2)c(OC)c1, the IC50 [1] is reported as 4.46 µM, the IC50 [2] is reported as less than 0.0316 µM and the IC50 [3] is reported as less than 0.0316 µM. For the same compound, the IC50 [4] was less than 0.0316 µM, the IC50 [5] was less than 0.0316 µM and the IC50 [6] was less than 0.0316 µM. For the same compound, the viability, T/C [7] was 68.1%, the viability, T/C [8] was 79.2% and the viability, T/C [19] was 76.3%. It also gave a viability, T/C [20] of 83.6%, a viability, T/C [21] of 70.9% and a viability, T/C [22] of 0.9%. For the same compound, the viability, T/C [9] was 42.1%, the viability, T/C [10] was 38.5% and the viability, T/C [23] was 33.8%. The viability, T/C [24] was 38.1%, the viability, T/C [25] was 32.5% and the viability, T/C [26] was 1.18%. It also gave a viability, T/C [11] of 35.6%, a viability, T/C [12] of 33.2% and a viability, T/C [27] of 33.7%. For the same compound, the viability, T/C [28] was 44.9%, the viability, T/C [29] was 32% and the viability, T/C [30] was 1.34%. It also gave a viability, T/C [13] of 32%, a viability, T/C [14] of 31.9% and a viability, T/C [31] of 30.8%. It also gave a viability, T/C [32] of 38.6%, a viability, T/C [33] of 28.6% and a viability, T/C [34] of 2.29%. The viability, T/C [15] was 31.2%, the viability, T/C [16] was 33.2% and the viability, T/C [35] was 42%. It also gave a viability, T/C [36] of 31.2%, a viability, T/C [37] of 32.7% and a viability, T/C [38] of 0.72%. The viability, T/C [17] was 30.8%, the viability, T/C [18] was 25.5% and the viability, T/C [39] was 30.7%. The viability, T/C [40] was 32.7%, the viability, T/C [41] was 29.3% and the viability, T/C [42] was 1.59%.
